From PubChem BioAssay AID272 (DTP/NCI, 2004)
Values joined by “and” are separate entries in the source; they are usually repeats but may differ in a detail not shown here. Equal entries are not always repeated. Inconclusive results are not listed.

Test system: Lewis lung carcinoma i.m., BDF1 mice, T/C %
Experiment: NCI In Vivo Anticancer Drug Screen. Data for tumor model Lewis Lung Carcinoma (intramuscular) in B6D2F1 (BDF1) mice
Conditions: schedule: Q01DX011 (ip)
Protocol: The antitumor activity of compounds was measured in mice bearing transplantable tumors. Survival or tumor size were measured and the results are expressed as the measurement made in the treated group (T) divided by the measurement made in the vehicle treated control group (C). The tumor model used in this assay is Lewis Lung Carcinoma (intramuscular) in B6D2F1 (BDF1) mice

[1] = endpoint: mean tumor weight (est.), dose: 25.0 mg/kg/injection, vehicle: saline with Tween-80, higher = larger tumour
[2] = endpoint: mean tumor weight (est.), dose: 50.0 mg/kg/injection, vehicle: saline with Tween-80, higher = larger tumour
[3] = endpoint: median survival time, dose: 25.0 mg/kg/injection, vehicle: saline with Tween-80, higher = longer survival
[4] = endpoint: median survival time, dose: 50.0 mg/kg/injection, vehicle: saline with Tween-80, higher = longer survival
[5] = endpoint: median survival time, dose: 10.0 mg/kg/injection, vehicle: saline with Tween-80, higher = longer survival
[6] = endpoint: mean tumor weight (est.), dose: 100.0 mg/kg/injection, vehicle: saline with Tween-80, higher = larger tumour
[7] = endpoint: mean tumor weight (est.), dose: 200.0 mg/kg/injection, vehicle: saline with Tween-80, higher = larger tumour
[8] = endpoint: median survival time, dose: 100.0 mg/kg/injection, vehicle: saline with Tween-80, higher = longer survival

SMILES: O=C1CN=C(c2ccc[nH]2)c2cc(Cl)ccc2N1
- T/C (endpoint: mean tumor weight, dose: 6.25 mg/kg/injection, vehicle: Klucel (hydroxypropylcellulose) (HPC), higher = larger tumour): 74 % of control
- T/C (endpoint: mean tumor weight, dose: 12.5 mg/kg/injection, vehicle: Klucel (hydroxypropylcellulose) (HPC), higher = larger tumour): 111 % of control
- T/C (endpoint: mean tumor weight, dose: 25.0 mg/kg/injection, vehicle: Klucel (hydroxypropylcellulose) (HPC), higher = larger tumour): 82 % of control
- T/C (endpoint: mean tumor weight, dose: 50.0 mg/kg/injection, vehicle: Klucel (hydroxypropylcellulose) (HPC), higher = larger tumour): 96 % of control
- T/C (endpoint: mean tumor weight, dose: 100.0 mg/kg/injection, vehicle: Klucel (hydroxypropylcellulose) (HPC), higher = larger tumour): 95 % of control
- T/C (endpoint: median survival time, dose: 6.25 mg/kg/injection, vehicle: Klucel (hydroxypropylcellulose) (HPC), higher = longer survival): 97 % of control
- T/C (endpoint: median survival time, dose: 12.5 mg/kg/injection, vehicle: Klucel (hydroxypropylcellulose) (HPC), higher = longer survival): 100 % of control
- T/C (endpoint: median survival time, dose: 25.0 mg/kg/injection, vehicle: Klucel (hydroxypropylcellulose) (HPC), higher = longer survival): 88 % of control and 111 % of control
- T/C (endpoint: median survival time, dose: 50.0 mg/kg/injection, vehicle: Klucel (hydroxypropylcellulose) (HPC), higher = longer survival): 102 % of control
- T/C (endpoint: median survival time, dose: 100.0 mg/kg/injection, vehicle: Klucel (hydroxypropylcellulose) (HPC), higher = longer survival): 100 % of control

SMILES: CSc1ncnc2c1ncn2C1OC(CO)C(O)C1O (stereo not given)
- T/C (endpoint: mean tumor weight, dose: 3.75 mg/kg/injection, vehicle: saline, higher = larger tumour): 86 % of control
- T/C (endpoint: mean tumor weight, dose: 7.5 mg/kg/injection, vehicle: saline, higher = larger tumour): 63 % of control
- T/C (endpoint: median survival time, dose: 3.75 mg/kg/injection, vehicle: saline, higher = longer survival): 100 % of control
- T/C (endpoint: median survival time, dose: 7.5 mg/kg/injection, vehicle: saline, higher = longer survival): 90 % of control

SMILES: O=C1CCCN1.O=C1CCCN1.[Br][Co][Br]
- T/C (endpoint: mean tumor weight, dose: 37.5 mg/kg/injection, vehicle: water, higher = larger tumour): 84 % of control
- T/C (endpoint: mean tumor weight, dose: 75.0 mg/kg/injection, vehicle: water, higher = larger tumour): 65 % of control
- T/C (endpoint: median survival time, dose: 37.5 mg/kg/injection, vehicle: water, higher = longer survival): 95 % of control
- T/C (endpoint: median survival time, dose: 75.0 mg/kg/injection, vehicle: water, higher = longer survival): 110 % of control

SMILES: CCCCn1cnc2c(N)ncnc21
- T/C (endpoint: mean tumor weight (est.), dose: 12.5 mg/kg/injection, vehicle: saline with Tween-80, higher = larger tumour): 81 % of control
- T/C [1]: 95 % of control
- T/C [2]: 77 % of control
- T/C (endpoint: median survival time, dose: 12.5 mg/kg/injection, vehicle: saline with Tween-80, higher = longer survival): 93 % of control
- T/C [3]: 97 % of control
- T/C [4]: 87 % of control

SMILES: O=C1N[C@@H]([C@H]2CC[C@H](Cl)CN2)C(=O)N[C@H]1[C@H]1CC[C@H](Cl)CN1
- T/C (endpoint: mean tumor weight, dose: 0.5 mg/kg/injection, vehicle: saline, higher = larger tumour): 67 % of control and 92 % of control
- T/C (endpoint: mean tumor weight, dose: 1.0 mg/kg/injection, vehicle: saline, higher = larger tumour): 65 % of control and 87 % of control
- T/C (endpoint: mean tumor weight, dose: 2.0 mg/kg/injection, vehicle: saline, higher = larger tumour): 42 % of control and 64 % of control
- T/C (endpoint: median survival time, dose: 0.5 mg/kg/injection, vehicle: saline, higher = longer survival): 105 % of control and 116 % of control
- T/C (endpoint: median survival time, dose: 1.0 mg/kg/injection, vehicle: saline, higher = longer survival): 95 % of control and 119 % of control

SMILES: CCN(CC)Cc1cc(Nc2c3ccccc3nc3cc(Cl)ccc23)ccc1O
- T/C (endpoint: mean tumor weight (est.), dose: 35.0 mg/kg/injection, vehicle: saline, higher = larger tumour): 79 % of control

SMILES: CN(Cc1ccccc1)/N=N/c1nc[nH]c1C(N)=O
- T/C (endpoint: mean tumor weight, dose: 50.0 mg/kg/injection, vehicle: saline, higher = larger tumour): 64 % of control
- T/C (endpoint: median survival time, dose: 50.0 mg/kg/injection, vehicle: saline, higher = longer survival): 91 % of control

SMILES: O=Nc1c(N=O)c(N=O)c(N=O)c(N=O)c1N=O
- T/C (endpoint: median survival time, dose: 5.0 mg/kg/injection, vehicle: saline with Tween-80, higher = longer survival): 110 % of control
- T/C [5]: 106 % of control
- T/C (endpoint: median survival time, dose: 20.0 mg/kg/injection, vehicle: saline with Tween-80, higher = longer survival): 115 % of control

SMILES: CCCCN(C)C(=S)S[Te](SC(=S)N(C)CCCC)(SC(=S)N(C)CCCC)SC(=S)N(C)CCCC
- T/C (endpoint: mean tumor weight (est.), dose: 100.0 mg/kg/injection, vehicle: saline, higher = larger tumour): 59 % of control
- T/C (endpoint: mean tumor weight (est.), dose: 200.0 mg/kg/injection, vehicle: saline, higher = larger tumour): 36 % of control
- T/C (endpoint: mean tumor weight (est.), dose: 400.0 mg/kg/injection, vehicle: saline, higher = larger tumour): 17 % of control
- T/C (endpoint: median survival time, dose: 100.0 mg/kg/injection, vehicle: saline, higher = longer survival): 114 % of control
- T/C (endpoint: median survival time, dose: 200.0 mg/kg/injection, vehicle: saline, higher = longer survival): 110 % of control
- T/C (endpoint: median survival time, dose: 400.0 mg/kg/injection, vehicle: saline, higher = longer survival): 121 % of control

SMILES: COc1c(C)c2c(c(O)c1C/C=C(\C)CCC(=O)O)C(=O)OC2
- T/C [1]: 98 % of control
- T/C [2]: 71 % of control
- T/C [6]: 57 % of control
- T/C [7]: 27 % of control
- T/C [3]: 97 % of control
- T/C [4]: 106 % of control
- T/C [8]: 100 % of control

SMILES: Cc1c2c(ccc3ccccc32)c[n+]2ccccc12
- T/C (endpoint: mean tumor weight (est.), dose: 2.5 mg/kg/injection, vehicle: saline, higher = larger tumour): 60 % of control
- T/C (endpoint: mean tumor weight (est.), dose: 5.0 mg/kg/injection, vehicle: saline, higher = larger tumour): 112 % of control
- T/C (endpoint: mean tumor weight (est.), dose: 10.0 mg/kg/injection, vehicle: saline, higher = larger tumour): 65 % of control
- T/C (endpoint: median survival time, dose: 2.5 mg/kg/injection, vehicle: saline, higher = longer survival): 107 % of control
- T/C (endpoint: median survival time, dose: 5.0 mg/kg/injection, vehicle: saline, higher = longer survival): 92 % of control
- T/C (endpoint: median survival time, dose: 10.0 mg/kg/injection, vehicle: saline, higher = longer survival): 94 % of control

SMILES: COc1ccc(OC)c(/C=C/c2ccnc3ccccc23)c1
- T/C [2]: 84 % of control
- T/C [6]: 75 % of control
- T/C (endpoint: mean tumor weight (est.), dose: 400.0 mg/kg/injection, vehicle: saline with Tween-80, higher = larger tumour): 77 % of control
- T/C [4]: 100 % of control
- T/C [8]: 102 % of control

SMILES: Cc1c(O)ccc(=O)n1O
- T/C (endpoint: mean tumor weight (est.), dose: 27.5 mg/kg/injection, vehicle: saline, higher = larger tumour): 99 % of control
- T/C (endpoint: mean tumor weight (est.), dose: 55.0 mg/kg/injection, vehicle: saline, higher = larger tumour): 121 % of control
- T/C (endpoint: mean tumor weight (est.), dose: 110.0 mg/kg/injection, vehicle: saline, higher = larger tumour): 84 % of control
- T/C (endpoint: mean tumor weight (est.), dose: 220.0 mg/kg/injection, vehicle: saline, higher = larger tumour): 79 % of control
- T/C (endpoint: median survival time, dose: 27.5 mg/kg/injection, vehicle: saline, higher = longer survival): 103 % of control
- T/C (endpoint: median survival time, dose: 55.0 mg/kg/injection, vehicle: saline, higher = longer survival): 96 % of control
- T/C (endpoint: median survival time, dose: 110.0 mg/kg/injection, vehicle: saline, higher = longer survival): 98 % of control
- T/C (endpoint: median survival time, dose: 220.0 mg/kg/injection, vehicle: saline, higher = longer survival): 121 % of control

SMILES: CCCCCCCCCCCCn1c(C)nc2ccccc21
- T/C (endpoint: mean tumor weight (est.), dose: 0.63 mg/kg/injection, vehicle: saline, higher = larger tumour): 84 % of control
- T/C (endpoint: mean tumor weight (est.), dose: 1.25 mg/kg/injection, vehicle: saline, higher = larger tumour): 89 % of control
- T/C (endpoint: median survival time, dose: 0.63 mg/kg/injection, vehicle: saline, higher = longer survival): 104 % of control
- T/C (endpoint: median survival time, dose: 1.25 mg/kg/injection, vehicle: saline, higher = longer survival): 98 % of control

SMILES: O=[N+]([O-])c1ccc(N/N=C/CC(O)CO)c([N+](=O)[O-])c1 (stereo not given)
- T/C [6]: 57 % of control
- T/C [7]: 52 % of control
- T/C [8]: 92 % of control

SMILES: N#Cc1c(F)c(F)c(C#N)c(F)c1F
- T/C (endpoint: mean tumor weight (est.), dose: 1.25 mg/kg/injection, vehicle: saline with Tween-80, higher = larger tumour): 100 % of control
- T/C (endpoint: mean tumor weight (est.), dose: 2.5 mg/kg/injection, vehicle: saline with Tween-80, higher = larger tumour): 95 % of control
- T/C (endpoint: mean tumor weight (est.), dose: 5.0 mg/kg/injection, vehicle: saline with Tween-80, higher = larger tumour): 101 % of control
- T/C (endpoint: mean tumor weight (est.), dose: 10.0 mg/kg/injection, vehicle: saline with Tween-80, higher = larger tumour): 70 % of control
- T/C (endpoint: median survival time, dose: 1.25 mg/kg/injection, vehicle: saline with Tween-80, higher = longer survival): 87 % of control
- T/C [5]: 89 % of control
